Measurements reported in ChEMBL document CHEMBL1127100, “Structure-activity relationships of a series of glycine antagonists related to 5,7-dichlorokynurenic acid and 3-(2-carboxy-6-chloroindol-3-yl)acetic acid” (Bioorg Med Chem Lett, 1993).

How the values were obtained:
[1] = molecular target: Glutamate receptor ionotropic, NMDA 1 (Rattus norvegicus, UniProt P35439); test: Tested for the ability to displace [3H]glycine, by greater than 50%, from NMDA receptor of rat cortical membranes at a dose of 10 uM
Glutamate NMDA receptor = test: Tested for the ability to inhibit [3H]MK-801 binding to NMDA receptor of rat cortical membranes in the presence of glutamate (1 uM)

`O=C(O)CCc1c(C(=O)O)nc2cc(Cl)cc(Cl)c2c1O` showed a Ki [1] of 7.04 µM and an IC50 (Glutamate NMDA receptor) of 103 µM.

`O=C(O)Cc1c(C(=O)O)nc2ccccc2c1O` gave a Ki [1] of 14.8 µM and an IC50 (Glutamate NMDA receptor) of 83.4 µM.

Work on `O=C(O)Cc1cc2ccccc2nc1C(=O)O` yielded a Ki [1] of over 100 µM and an IC50 (Glutamate NMDA receptor) of over 100 µM.

`O=C(O)c1cc2c(Cl)cc(Cl)cc2[nH]1` showed a Ki [1] of 0.98 µM and an IC50 (Glutamate NMDA receptor) of 5.91 µM.

In the case of `O=C(O)Cc1c(C(=O)O)[nH]c2cc(Cl)cc(Cl)c12`, the Ki [1] is reported as 0.34 µM and the IC50 (Glutamate NMDA receptor) is reported as 3.33 µM.

For `O=C(O)CCc1c(C(=O)O)[nH]c2cc(Cl)cc(Cl)c12`, the Ki [1] was 0.14 µM.

`O=C(O)Cc1c(C(=O)O)nc2cc(Cl)cc(Cl)c2c1O` gave a Ki [1] of 0.65 µM and an IC50 (Glutamate NMDA receptor) of 3.54 µM.

For `O=C(O)c1cc(O)c2c(Cl)cc(Cl)cc2n1`, the IC50 (Glutamate NMDA receptor) was 0.86 µM.
